Entries after “also recorded” stand apart in the source; their conditions may differ.
Tests used:
[1] = tested on: HepG2/C3A liver cells; type: cell-based
Description: After 24 h, the cell-loaded 3D scaffolds were aseptically transferred into the tissue chambers of the appropriate tissues chip. The chips were then placed on top of each other, so that the back of one tissue chamber closed the opening of the tissue chip below it. The tissue chip stack was then inserted into the holder. The two reservoirs of the cube were filled with 32.5 μL of EMEM (containing a volume fraction of 10% FBS) each, and the device was placed onto a rocker platform that tilted back and forth at an angle of 45°. The platform changed its tilt from 45° to −45° every 60 s continuously for 72 h. Culture medium was collected and replaced with fresh medium after 1 h, 16 h, 24 h, 40 h, 48 h, and 64 h. The total amount of blood surrogate (i.e. the amount of cell culture medium that we consider blood surrogate) inside the system consisted of 2×32.5 μL (medium in the reservoirs), plus 15 μL (medium inside the microfluidic channels that deliver medium to the tissue culture chambers).
To estimate cell death during co-culture, we measured AST concentrations in the cell culture medium recovered from the devices after 1 h, 16 h, 40 h and 64 h of co-culture. The AST activity was measured with an assay kit. Briefly, standard samples and medium samples were added to the 96 well plate. We then added 100 μL of working solution to each well and mixed both solutions by gently tapping the plate. The plate was then incubated inside a plate reader in the dark, at 37° C. […] We then selected the initial absorbance value inside the linear range and calculated the AST concentrations using the protocol given in the kit. The results are expressed as μg per million cells produced in relation to a 1 h baseline measurement.
Similar to the baseline experiments described above, we recovered cell cultures after 72 h of co-culture from the device.

[2] = tested on: HepG2/C3A liver cells; assay: Urea production in collected cell culture medium of the body cube; type: cell-based, human
[3] = tested on: HepG2/C3A liver cells; assay: Cell viability stain of liver cells after 72 h co-culture in the body cube; type: cell-based, human; settings: 72 h four-tissue co-culture in body cube, 80 μL recirculating medium; compared to control without drug
[4] = tested on: HepG2/C3A liver cells; assay: Albumin synthesis by ELISA in cell culture medium of the body cube; type: cell-based, human; settings: drugs added to the cube; compared to control without drug

## Cc1c(C)c2c(c(C)c1O)CCC(C)(COc1ccc(CC3SC(=O)NC3=O)cc1)O2 (stereo not shown) [troglitazone]
[1]; after 40 h of exposure
  cytosolic enzymes released vs cultures not exposed to drugs: significantly larger amounts
[1]; after 48 h
  cytosolic enzyme concentration in the medium vs control cultures: similar
[1]; body cube co-culture, compared to control without drug
  AST in the cell culture medium: significantly higher; also recorded: temporary increase of AST
[2]; body cube co-culture challenged with drug
  metabolic activity of the tissues: decrease in metabolic activity
[2]; drugs added to the cube, compared to control without drug
  urea production: decreased
[3]
  cell viability in the liver chamber (viability stain, fluorescence images): significant liver damage; also recorded: expected cell death; also recorded: significantly lowered cell viability
[4]
  albumin production: not albumin production was decreased
